Reference: PubChem BioAssay (NCI)
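These data come from cells grown in 96-well plates and exposed to compound for 48 hours at five concentrations. TGI is the concentration that stops growth completely.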

Tests used:
Assay in all cases: growth of human tumour cells (NCI), 48 h
A498 renal = tested on: A498 renal
DU-145 prostate = tested on: DU-145 prostate
HOP-92 NSCLC = tested on: HOP-92 NSCLC
OVCAR-4 ovarian = tested on: OVCAR-4 ovarian
NCI-H23 lung = tested on: NCI-H23 lung
MCF7 breast = tested on: MCF7 breast
SW-620 colon = tested on: SW-620 colon
786-0 renal = tested on: 786-0 renal
HOP-62 NSCLC = tested on: HOP-62 NSCLC
NCI-H460 lung = tested on: NCI-H460 lung
SK-MEL-28 melanoma = tested on: SK-MEL-28 melanoma
UO-31 renal = tested on: UO-31 renal
RXF 393 renal = tested on: RXF 393 renal
HS 578T breast = tested on: HS 578T breast

Compound | TGI (A498 renal) | TGI (DU-145 prostate) | TGI (HOP-92 NSCLC) | TGI (OVCAR-4 ovarian) | TGI (NCI-H23 lung) | TGI (MCF7 breast) | TGI (SW-620 colon) | TGI (786-0 renal) | TGI (HOP-62 NSCLC) | TGI (NCI-H460 lung) | TGI (SK-MEL-28 melanoma) | TGI (UO-31 renal) | TGI (RXF 393 renal) | TGI (HS 578T breast)
O=C1CCCCC(=O)OC2(CCCCC2=O)CC1 (configuration not stated) | > 100 µM | > 100 µM | > 100 µM | > 100 µM | > 100 µM | > 100 µM | > 100 µM | > 100 µM | > 100 µM | > 100 µM | > 100 µM | > 100 µM | > 100 µM | 
CCOC(=O)c1ccc(N2C(=S)N(C(=O)c3ccccc3)C(=Nc3ccccc3)C2=Nc2ccccc2)cc1 |  | > 100 µM | 78.7 µM |  | > 100 µM | > 100 µM | > 100 µM | > 100 µM | > 100 µM | > 100 µM | > 100 µM | > 100 µM |  | > 100 µM
CC(=O)OC1CC2C(C)(C)OC(=O)CC(OC(C)=O)[C@]2(C)C2CCC3(C)C(=CCC3[C@H]3COC(=O)C3)[C@]12C (some centres not stated) | > 100 µM |  | > 100 µM | > 100 µM | > 100 µM |  | > 100 µM | > 100 µM | > 100 µM | > 100 µM | > 100 µM | > 100 µM | > 100 µM | 
NC1=NS(=O)(=O)Nc2nc(-c3ccc([N+](=O)[O-])cc3)[nH]c21 |  |  | > 100 µM | > 100 µM | > 100 µM |  | > 100 µM | > 100 µM | > 100 µM | > 100 µM | > 100 µM | > 100 µM | > 100 µM | 
Cc1cc(C2(O)C=C(C(C)(C)C)C(=O)C(C(C)(C)C)=C2)c(C)cc1C1(O)C=C(C(C)(C)C)C(=O)C(C(C)(C)C)=C1 |  | > 100 µM |  | > 100 µM | > 100 µM | > 100 µM | > 100 µM | > 100 µM | > 100 µM |  | > 100 µM | > 100 µM |  | 
O=C(Cc1ccccc1)NN1C(=O)/C(=C\c2cccc(O)c2)SC1=Nc1ccccc1 | > 100 µM | > 100 µM |  | > 100 µM | > 100 µM | > 100 µM | > 100 µM | > 100 µM | > 100 µM | > 100 µM | > 100 µM | > 100 µM | > 100 µM | > 100 µM
CN1NC(=Nc2ccccc2)Sc2c1cnn(-c1ccccc1)c2=O | > 100 µM |  | > 100 µM | > 100 µM | > 100 µM |  | > 100 µM | > 100 µM | > 100 µM | > 100 µM |  | > 100 µM | > 100 µM | 
CC(C)C(=O)/C=C/c1ccc(Br)cc1 | 28 µM |  | 30.9 µM | 63.3 µM | 38.2 µM |  | 23.1 µM | 23.2 µM |  | 30.1 µM | 41 µM | 30.1 µM | 36 µM | 
COC(=O)OCC1OC(N2C(=O)NC(=O)C(Br)C2N=[N+]=[N-])CC1OC(=O)OC (configuration not stated) |  |  | > 100 µM | > 100 µM | > 100 µM |  | > 100 µM | > 100 µM | > 100 µM | > 100 µM | > 100 µM | > 100 µM | > 100 µM | 
COC(=O)[C@@H]1CCCN1CCN1CCC[C@H]1C(=O)OC | > 100 µM | > 100 µM | > 100 µM | > 100 µM | > 100 µM | > 100 µM | > 100 µM | > 100 µM | > 100 µM | > 100 µM | > 100 µM | > 100 µM | > 100 µM | 
O=C(Cc1ccccc1)NN1C(=O)C(Cl)C1c1ccc(O)cc1 (configuration not stated) |  |  |  |  | > 100 µM |  | > 100 µM | > 100 µM | > 100 µM | > 100 µM | > 100 µM | > 100 µM | > 100 µM | 
O=C1Nc2c(ccc(Cl)c2I)C1=O |  |  |  | 31.6 µM | 30.7 µM |  | 45.6 µM | 28.2 µM | 48.3 µM | 31.8 µM | 32.7 µM | 32.1 µM | 31.3 µM | 
O=C1c2ccccc2CCCCCCCCCCC12OCCCO2 | 97.5 µM |  |  | > 100 µM | > 100 µM |  |  | > 100 µM | > 100 µM | > 100 µM | > 100 µM | > 100 µM | 33.7 µM | 
O=C1c2ccccc2-c2nc(-c3cccc([N+](=O)[O-])c3)nnc21 |  | 17 µM | > 100 µM | > 100 µM | 50.5 µM | > 100 µM | 62.8 µM | > 100 µM |  | 24.8 µM |  | 42.2 µM | > 100 µM | > 100 µM
CC(=O)C1=C(C)NC2C=CC=CN12 (configuration not stated) | > 100 µM |  | > 100 µM | > 100 µM | > 100 µM |  | > 100 µM | > 100 µM | > 100 µM | > 100 µM | > 100 µM | > 100 µM | > 100 µM | 
COC(=O)C1=C2SCc3cccc(c3)CSC3=C(C(=O)OC)SC(=C(S2)S1)S3 | > 100 µM | > 100 µM |  | > 100 µM |  | > 100 µM | > 100 µM | > 100 µM | > 100 µM | > 100 µM | > 100 µM | > 100 µM | > 100 µM | 
CC1=COC(C)(C=C(C#N)C#N)CC1 (configuration not stated) | > 100 µM | > 100 µM |  | > 100 µM | > 100 µM | > 100 µM | > 100 µM | > 100 µM | > 100 µM | > 100 µM | > 100 µM | > 100 µM | > 100 µM | 51.3 µM
Nn1c(CCCCCCCCc2nnc(COc3ccc(Cl)cc3)n2N)nnc1COc1ccc(Cl)cc1 | > 100 µM | > 100 µM | > 100 µM | > 100 µM | > 100 µM | > 100 µM | > 100 µM | > 100 µM |  | > 100 µM | > 100 µM | > 100 µM | > 100 µM | 
C1CCC2C(C1)CCCC2NC1=NCCO1 (configuration not stated) | > 100 µM | > 100 µM |  | > 100 µM | > 100 µM | > 100 µM | > 100 µM | > 100 µM | > 100 µM | > 100 µM | > 100 µM | > 100 µM | > 100 µM | 
O=C1c2ccccc2C(=O)N1Cc1ccccc1-c1c2nc(c(-c3ccccc3CN3C(=O)c4ccccc4C3=O)c3ccc([nH]3)c(-c3ccccc3CN3C(=O)c4ccccc4C3=O)c3nc(c(-c4ccccc4CN4C(=O)c5ccccc5C4=O)c4ccc1[nH]4)C=C3)C=C2 | > 100 µM |  | > 100 µM | > 100 µM | > 100 µM |  | > 100 µM | > 100 µM | > 100 µM | > 100 µM | > 100 µM | > 100 µM | > 100 µM | 
